ChEMBL document CHEMBL1201862, “PubChem BioAssay data set” (2004)
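1) Cells in 96-well plates. 2) Compound, 48 h, 5 concentrations. 3) Linear interpolation between surrounding doses. 4) Unreached endpoint = highest concentration. The concentration for 50% growth inhibition is given as GI50.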 Activity calls are given as the source filed them. No stated cut-off is given here; in the data, active = GI50 up to about 1.1 µM and inactive = higher.

Tests used:
Test in all cases: growth of human tumour cells (NCI), 48 h
[1] = tested on: MOLT-4
[2] = tested on: SN12C
[3] = tested on: SF-268
[4] = tested on: NCI-H23
[5] = tested on: A549
[6] = tested on: OVCAR-8
[7] = tested on: SK-OV-3
[8] = tested on: CCRF-CEM
[9] = tested on: UO-31
[10] = tested on: HL-60
[11] = tested on: SR
[12] = tested on: Malme-3M
[13] = tested on: NCI-H226
[14] = tested on: CAKI-1
[15] = tested on: HCT-15

Row | Structure (SMILES) | GI50 [1] | GI50 [2] | GI50 [3] | GI50 [4] | GI50 [5] | GI50 [6] | GI50 [7] | GI50 [8] | GI50 [9] | GI50 [10] | GI50 [11] | GI50 [12] | GI50 [13] | GI50 [14] | GI50 [15] [µM]
1 | Cc1nc(N)nc(N)c1CCCc1ccccc1 | 4.07 µM (inactive) | 3.65 µM (inactive) | 5.4 µM (inactive) | 10.3 µM (inactive) | 1.49 µM (inactive) | 7.59 µM (inactive) | 57.5 µM (inactive) | 6.25 µM (inactive) | 20.8 µM (inactive) | 6.35 µM (inactive) | 4.07 µM (inactive) | 1.73 µM (inactive) | 97.7 µM (inactive) | 9.25 µM (inactive) | 2.87
2 | Cc1ccc(NC(=O)CCC(=O)C(C#N)c2ccccc2)cc1C (stereo unspecified) | > 100 µM (inactive) | > 100 µM (inactive) | > 100 µM (inactive) | > 100 µM (inactive) | > 100 µM (inactive) | > 100 µM (inactive) | > 100 µM (inactive) | > 100 µM (inactive) | > 100 µM (inactive) | > 100 µM (inactive) | – | > 100 µM (inactive) | > 100 µM (inactive) | > 100 µM (inactive) | > 100
3 | Sc1nnc(COc2ccc(Cl)cc2Cl)[nH]1 | > 100 µM (inactive) | > 100 µM (inactive) | > 100 µM (inactive) | > 100 µM (inactive) | > 100 µM (inactive) | > 100 µM (inactive) | – | > 100 µM (inactive) | > 100 µM (inactive) | 26.4 µM (inactive) | > 100 µM (inactive) | > 100 µM (inactive) | > 100 µM (inactive) | > 100 µM (inactive) | > 100
4 | C#CC1(O)CC(c2ccccc2)N(C)C(c2ccccc2)C1 (stereo unspecified) | > 100 µM (inactive) | > 100 µM (inactive) | > 100 µM (inactive) | > 100 µM (inactive) | > 100 µM (inactive) | > 100 µM (inactive) | > 100 µM (inactive) | > 100 µM (inactive) | 67.1 µM (inactive) | > 100 µM (inactive) | – | > 100 µM (inactive) | > 100 µM (inactive) | > 100 µM (inactive) | > 100
5 | Cc1cc2c(cc1C)[n+]([O-])c(C(=O)/C=C/c1ccccc1Cl)c(C)[n+]2[O-] | 39.5 µM (inactive) | 33 µM (inactive) | 27.9 µM (inactive) | 19.3 µM (inactive) | 33.9 µM (inactive) | 26.1 µM (inactive) | 36 µM (inactive) | 37.2 µM (inactive) | 18 µM (inactive) | 29.9 µM (inactive) | – | 31.8 µM (inactive) | > 100 µM (inactive) | 21.1 µM (inactive) | 22.5
6 | O=C(CCN1CCN(c2cccc(Cl)c2)CC1)N1CCc2c([nH]c3ccccc23)C1c1cccnc1 (stereo unspecified) | 2.95 µM (inactive) | 6.62 µM (inactive) | – | 7.89 µM (inactive) | 6.28 µM (inactive) | 6.55 µM (inactive) | 6.59 µM (inactive) | 5.56 µM (inactive) | 2.98 µM (inactive) | 2.54 µM (inactive) | 1.75 µM (inactive) | 7.71 µM (inactive) | 18.6 µM (inactive) | 3.8 µM (inactive) | 3.4
7 | Nc1c(Cl)ncnc1NCCCNc1ncnc(Cl)c1N | > 100 µM (inactive) | > 100 µM (inactive) | > 100 µM (inactive) | 53.8 µM (inactive) | > 100 µM (inactive) | > 100 µM (inactive) | > 100 µM (inactive) | > 100 µM (inactive) | 95.3 µM (inactive) | > 100 µM (inactive) | > 100 µM (inactive) | – | > 100 µM (inactive) | > 100 µM (inactive) | > 100
8 | O=C(N/C(=C\c1ccc([N+](=O)[O-])cc1)c1nc2ccccc2[nH]1)c1ccccc1 | > 100 µM (inactive) | > 100 µM (inactive) | > 100 µM (inactive) | > 100 µM (inactive) | 93.5 µM (inactive) | > 100 µM (inactive) | – | – | 21.9 µM (inactive) | 70.6 µM (inactive) | – | > 100 µM (inactive) | – | – | 45.5
9 | O=S1(=O)OCCOS(=O)(=O)C1Br | > 100 µM (inactive) | > 100 µM (inactive) | > 100 µM (inactive) | > 100 µM (inactive) | > 100 µM (inactive) | > 100 µM (inactive) | > 100 µM (inactive) | > 100 µM (inactive) | 39.1 µM (inactive) | > 100 µM (inactive) | > 100 µM (inactive) | > 100 µM (inactive) | < 0.01 µM (active) | > 100 µM (inactive) | –
10 | COc1ccc(OC)c(/C=C(/C#N)c2ccccc2)c1 | 12.9 µM (inactive) | 32.6 µM (inactive) | 34 µM (inactive) | 23.5 µM (inactive) | 13.2 µM (inactive) | 37.2 µM (inactive) | 50 µM (inactive) | 17.5 µM (inactive) | – | 3.95 µM (inactive) | – | 35.6 µM (inactive) | 26.9 µM (inactive) | 35.1 µM (inactive) | 18.9
11 | N#CCCN(CCC#N)C(=O)c1cccc(C(=O)N(CCC#N)CCC#N)c1 | > 100 µM (inactive) | > 43.7 µM (inactive) | > 100 µM (inactive) | > 41.9 µM (inactive) | > 69.7 µM (inactive) | > 50 µM (inactive) | > 100 µM (inactive) | > 100 µM (inactive) | > 100 µM (inactive) | > 55.2 µM (inactive) | > 44.2 µM (inactive) | 72.1 µM (inactive) | – | > 100 µM (inactive) | > 100
12 | O=C1NC(=O)C2C(=O)NC(=O)C1C2Cc1ccco1 (stereo unspecified) | > 100 µM (inactive) | > 100 µM (inactive) | > 100 µM (inactive) | > 100 µM (inactive) | > 100 µM (inactive) | > 100 µM (inactive) | > 100 µM (inactive) | > 100 µM (inactive) | > 100 µM (inactive) | > 100 µM (inactive) | – | > 100 µM (inactive) | > 100 µM (inactive) | > 100 µM (inactive) | > 100
13 | NC(=S)Nc1nnc(-c2ccc(-c3nnc(NC(N)=S)o3)cc2)o1 | > 100 µM (inactive) | > 100 µM (inactive) | > 100 µM (inactive) | > 100 µM (inactive) | > 100 µM (inactive) | > 100 µM (inactive) | > 100 µM (inactive) | > 100 µM (inactive) | > 100 µM (inactive) | > 100 µM (inactive) | – | > 100 µM (inactive) | > 100 µM (inactive) | > 100 µM (inactive) | > 100
14 | O=C1CC2CCCCC2=C1O (stereo unspecified) | > 100 µM (inactive) | > 100 µM (inactive) | > 100 µM (inactive) | > 100 µM (inactive) | > 100 µM (inactive) | > 100 µM (inactive) | > 100 µM (inactive) | > 100 µM (inactive) | > 100 µM (inactive) | > 100 µM (inactive) | – | > 100 µM (inactive) | – | > 100 µM (inactive) | > 100
15 | C#CC[C@]12CC(=O)CC[C@H]1CC1(C2)OCCO1 | > 100 µM (inactive) | > 100 µM (inactive) | > 100 µM (inactive) | – | > 100 µM (inactive) | > 100 µM (inactive) | > 100 µM (inactive) | > 100 µM (inactive) | > 100 µM (inactive) | > 100 µM (inactive) | > 100 µM (inactive) | > 100 µM (inactive) | > 100 µM (inactive) | > 100 µM (inactive) | > 100
16 | COC(=O)CCC(=O)Nc1ccc(Cl)cc1C | 1.8 µM (inactive) | > 23.2 µM (inactive) | – | > 71 µM (inactive) | > 22 µM (inactive) | > 100 µM (inactive) | > 100 µM (inactive) | 0.123 µM (active) | – | 0.399 µM (active) | 5.47 µM (inactive) | > 100 µM (inactive) | > 52.6 µM (inactive) | 23.4 µM (inactive) | > 100
17 | c1ccc2c(c1)[nH]c1c2nc2ncccn21 | > 100 µM (inactive) | > 100 µM (inactive) | > 100 µM (inactive) | > 100 µM (inactive) | > 100 µM (inactive) | > 100 µM (inactive) | > 100 µM (inactive) | > 100 µM (inactive) | > 100 µM (inactive) | > 10 µM (inactive) | > 100 µM (inactive) | > 100 µM (inactive) | > 100 µM (inactive) | > 100 µM (inactive) | –
18 | COc1cc2c(cc1OC)C(N(C)C)C(c1ccccc1)=C2Cl (stereo unspecified) | 12.5 µM (inactive) | 18.7 µM (inactive) | – | 16.9 µM (inactive) | – | 18.9 µM (inactive) | 22 µM (inactive) | 60.5 µM (inactive) | 16.9 µM (inactive) | 16.1 µM (inactive) | 4.54 µM (inactive) | – | 21.9 µM (inactive) | – | 17.5
19 | COC(=O)CCC1(NS(=O)(=O)c2ccc(C)cc2)CCC(C(C)(C)C)CC1 (stereo unspecified) | 6.15 µM (inactive) | 13.7 µM (inactive) | > 10 µM (inactive) | 9.71 µM (inactive) | 13.6 µM (inactive) | 14.5 µM (inactive) | 40.6 µM (inactive) | 9.89 µM (inactive) | 3.3 µM (inactive) | 3 µM (inactive) | – | 19.3 µM (inactive) | – | 13.6 µM (inactive) | > 10
20 | CC(C)C1CC(O)O[C@@H]([C@@H](C)[C@H]2CC(=O)[C@@H]3[C@@H]4[C@@H](O)[C@H](O)[C@H]5[C@@H](O)[C@H](O)CC[C@]5(C)[C@H]4CC[C@]23C)C1 (stereo partly specified) | > 100 µM (inactive) | 28.7 µM (inactive) | 39.9 µM (inactive) | 36 µM (inactive) | 53.1 µM (inactive) | 54.1 µM (inactive) | 34.5 µM (inactive) | > 100 µM (inactive) | > 100 µM (inactive) | > 100 µM (inactive) | > 100 µM (inactive) | 77.4 µM (inactive) | > 100 µM (inactive) | – | > 100
21 | COc1cc(CNc2ccc(C(C)C)cc2)cc(OC)c1OC | 22.4 µM (inactive) | 17.4 µM (inactive) | 54.7 µM (inactive) | 20.1 µM (inactive) | 13 µM (inactive) | 28 µM (inactive) | 17.6 µM (inactive) | 19 µM (inactive) | 20.2 µM (inactive) | – | – | 19.5 µM (inactive) | – | – | 16.9
